{"source": "patent US20210308117A1", "about": "“METHODS OF TREATING VIRAL INFECTIONS USING INHIBITORS OF NUCLEOTIDE SYNTHESIS PATHWAYS” (priority 2020, published 2021)", "key": {"SARS-CoV-2": {"test_system": "SARS-CoV-2", "assay": "microbe, parasite or virus in culture", "format": "cell-based"}, "clinical": {"assay": "clinical", "settings": "human, in vivo, po"}, "RNA virus": {"test_system": "RNA virus", "assay": "Daily dosing of brequinar in a subject infected with an RNA virus", "format": "in vivo", "settings": "once per day for five consecutive days; first peak in brequinar level", "experimental": "The mechanism by which administration of a DHODH inhibitor according to a daily dosing regimen inhibits viral replication is illustrated below. […] Throughout the course of the dosing regimen, levels of intracellular pyrimidines, such as uridine, and viral replication are measured."}, "[1]": {"test_system": "16HBE (human bronchial epithelial)", "settings": "cited from earlier work"}, "[2]": {"settings": "in vivo, iv; cited from earlier work"}, "[3]": {"test_system": "HeLa (human cervical tumor)", "settings": "cited from earlier work"}, "[4]": {"settings": "human, in vivo"}, "Vero76 (monkey kidney)": {"test_system": "Vero76 (monkey kidney)", "settings": "cited from earlier work"}, "[5]": {"test_system": "HuH7 (human hepatocellular carcinoma)", "settings": "cited from earlier work"}, "[6]": {"assay": "Adverse events in subjects receiving brequinar", "settings": "i.v. once a week"}, "H1-HeLa cells [7]": {"test_system": "H1-HeLa cells", "assay": "Cytotoxicity XTT assay in H1-HeLa cells", "settings": "read-out: TC50, 3 days"}, "Vero (monkey kidney)": {"test_system": "Vero (monkey kidney)", "settings": "cited from earlier work"}, "[8]": {"test_system": "Primary Human Fibroblasts", "settings": "cited from earlier work"}, "[9]": {"settings": "weekly rapid iv injection; previously treated patients with advanced lung cancer; cited from earlier work"}, "[10]": {"settings": "cited from earlier work"}, "H1-HeLa cells [11]": {"test_system": "H1-HeLa cells", "settings": "human, 3 days"}, "Vero E6 cells": {"test_system": "Vero E6 cells", "settings": "remdesivir co-treated with brequinar"}, "[12]": {"settings": "1-h i.v. infusion every 3 weeks"}}, "note": "Where two headings read alike, the source gives them in different places."}
{"smiles": "CC(C)C[C@H](NC(=O)OCc1ccccc1)C(=O)N[C@@H](CC1CCNC1=O)C(O)S(=O)(=O)[O-].[Na+]", "note": "(stereo partly drawn) [GC-376]", "values": [{"measurement": "SI50 (Selective Index 50 = CC50/IC50)", "setting": "SARS-CoV-2", "value": ">24.5"}]}
{"smiles": "Cc1c(-c2ccc(-c3ccccc3F)cc2)nc2ccc(F)cc2c1C(=O)O", "note": "[brequinar, 6-fluoro-2-(2′-fluoro-1,1′ biphenyl-4-yl)-3-methyl-4-quinoline carboxylic acid]", "values": [{"measurement": "bioavailability", "setting": "clinical", "value": "> 90", "unit": "%"}, {"measurement": "intracellular pyrimidine pool", "setting": "RNA virus", "value": "dramatic decrease in the intracellular pyrimidine pool"}, {"measurement": "CC50", "setting": "[1]", "value": "> 50", "unit": "µM"}, {"measurement": "recommended dose for phase II evaluation, good risk patients", "setting": "[2]", "value": 250, "unit": "mg/m^2"}, {"measurement": "recommended dose for phase II evaluation, poor risk patients", "setting": "[2]", "value": 135, "unit": "mg/m^2"}, {"measurement": "CC50", "setting": "[3]", "value": "> 25", "unit": "µM"}, {"measurement": "cumulative effect of repeated doses", "setting": "[4]", "value": "No cumulative effective of repeated doses"}, {"measurement": "CC50", "setting": "Vero76 (monkey kidney)", "value": "> 50", "unit": "µM"}, {"measurement": "CC50", "setting": "[5]", "value": "> 25", "unit": "µM"}, {"measurement": "Infection: No. of Patients, Max Grade 1", "setting": "[6]", "value": 4}, {"measurement": "Infection: No. of Patients, Max Grade 2", "setting": "[6]", "value": 3}, {"measurement": "Infection: No. of Patients, Max Grade 3", "setting": "[6]", "value": 0}, {"measurement": "Infection: No. of Patients, Max Grade 4", "setting": "[6]", "value": 0}, {"measurement": "CC50", "setting": "H1-HeLa cells [7]", "value": 0.3, "unit": "µM"}, {"measurement": "CC50", "setting": "Vero (monkey kidney)", "value": "> 50", "unit": "µM"}, {"measurement": "CC50", "setting": "[8]", "value": "> 50", "unit": "µM"}]}
{"smiles": "NC(=O)c1[nH]nc([C@@H]2O[C@H](CO)[C@@H](O)[C@H]2O)c1O", "note": "[pyrazofurin, 5-[(2S,3R,4S,5R)-3,4-dihydroxy-5-(hydroxymethyl)oxolan-2-yl]-4-hydroxy-1H-pyrazole-3-carboxamide]", "values": [{"measurement": "therapeutic value", "setting": "[9]", "value": "little therapeutic value as a single agent"}]}
{"smiles": "Cc1c(-c2ccc(-c3ccccc3F)cc2)nc2ccc(F)cc2c1C(=O)O", "note": "[brequinar sodium]", "values": [{"measurement": "recommended dose for phase II studies, good-risk patients", "setting": "[10]; [12]", "value": "1,800 mg/m^2"}, {"measurement": "recommended dose for phase II studies, poor-risk patients", "setting": "[10]; [12]", "value": "1,200 mg/m^2"}, {"measurement": "maximum tolerable dose, good-risk patients", "setting": "[10]; i.v. infusion every 3 weeks", "value": "2,250 mg/m^2"}, {"measurement": "maximum tolerable dose, poor-risk patients", "setting": "[10]; i.v. infusion every 3 weeks", "value": "1,500 mg/m^2"}]}
{"smiles": "CCOC(=O)/C=C/[C@H](C[C@@H]1CCNC1=O)NC(=O)[C@@H](CC(=O)[C@@H](NC(=O)c1cc(C)on1)C(C)C)Cc1ccc(F)cc1", "note": "[Rupintrivir]", "values": [{"measurement": "CC50", "setting": "H1-HeLa cells [11]", "value": "> 0.1", "unit": "µM"}]}
{"smiles": "CCC(CC)COC(=O)[C@H](C)N[P@](=O)(OC[C@H]1O[C@@](C#N)(c2ccc3c(N)ncnn23)[C@H](O)[C@@H]1O)Oc1ccccc1", "note": "[remdesivir]", "values": [{"measurement": "cytotoxicity by the co-treatment", "setting": "Vero E6 cells", "value": "No enhanced cytotoxicity"}, {"measurement": "fold increase in activity of remdesivir", "setting": "SARS-CoV-2", "value": "> 6.8", "unit": "fold"}, {"measurement": "E(Max)", "setting": "SARS-CoV-2; SARS-CoV-2, Vero E6, maximum CPE-protection effect", "value": 100}]}
{"smiles": "NC(=O)c1ncn([C@@H]2O[C@H](CO)[C@@H](O)[C@H]2O)n1", "note": "[ribavirin]", "values": [{"measurement": "EC50", "setting": "SARS-CoV-2; Severe acute respiratory syndrome coronavirus 2, Vero C1008, SARS-CoV-2, Vero E6, MOI 0.05, read-out: EC50 (50% of the maximum CPE-protection effect of the compound)", "value": "> 50", "unit": "µM"}]}
